Measured values: ChEMBL document CHEMBL5518172, “Discovery of hydroxamate as a promising scaffold dually inhibiting metallo- and serine-β-lactamases” (Eur J Med Chem, 2024)

What was measured:
[1] = biological target: Metallo-beta-lactamase type 2 (Bacteria) (UniProt C7C422); assay: Inhibition of recombinant NDM-1 (unknown origin) expressed in Escherichia coli BL21 (DE3) cells using meropenem as substrate at 20 uM by spectrometric analysis relative to control
Bacteria [2] = assay: Inhibition of recombinant metallo-beta-lactamase IMP-1 (unknown origin) expressed in Escherichia coli BL21 (DE3) cells using cefazolin as substrate at 20 uM by spectrometric analysis relative to control
Bacteria [3] = assay: Inhibition of recombinant metallo-beta-lactamase ImiS (unknown origin) expressed in Escherichia coli BL21 (DE3) cells using meropenem as substrate at 20 uM by spectrometric analysis relative to control
Bacteria [4] = assay: Inhibition of recombinant metallo-beta-lactamase L-1 (unknown origin) expressed in Escherichia coli BL21 (DE3) cells using cefazolin as substrate at 20 uM by spectrometric analysis relative to control
Bacteria [5] = assay: Inhibition of recombinant serine beta lactamase KPC-2 (unknown origin) expressed in Escherichia coli BL21 (DE3) cells using meropenem as substrate at 20 uM by spectrometric analysis relative to control
Bacteria [6] = assay: Inhibition of recombinant serine beta lactamase OXA-48 (unknown origin) expressed in Escherichia coli BL21 (DE3) cells using meropenem as substrate at 20 uM by spectrometric analysis relative to control
[7] = biological target: Metallo-beta-lactamase type 2 (Bacteria, UniProt C7C422); assay: Inhibition of recombinant NDM-1 (unknown origin) expressed in Escherichia coli BL21 (DE3) cells using meropenem as substrate by spectrometric analysis
[8] = Inhibition of recombinant metallo-beta-lactamase IMP-1 (unknown origin) expressed in Escherichia coli BL21 (DE3) cells using meropenem as substrate by spectrometric analysis; parameters: species or system Bacteria
[9] = Inhibition of recombinant serine beta lactamase OXA-48 (unknown origin) expressed in Escherichia coli BL21 (DE3) cells using meropenem as substrate by spectrometric analysis; parameters: species or system Bacteria
[10] = Inhibition of recombinant serine beta lactamase KPC-2 (unknown origin) expressed in Escherichia coli BL21 (DE3) cells using meropenem as substrate by spectrometric analysis; parameters: species or system Bacteria
Escherichia coli [11] = assay: Synergistic antibacterial activity against Escherichia coli BL21 (DE3) harboring NDM-1 assessed as meropenem MIC at 64 microg/ml measured after 16 hrs by CLSI protocol based broth microdilution method (reference value: 256 microg/ml); type: functional; settings: dose 64 µg/ml
Escherichia coli [12] = assay: Synergistic antibacterial activity against Escherichia coli BL21 (DE3) harboring metallo-beta-lactamase IMP-1 assessed as meropenem MIC at 64 microg/ml measured after 16 hrs by CLSI protocol based broth microdilution method (reference value: 64 microg/ml); type: functional; settings: dose 64 µg/ml
Escherichia coli [13] = assay: Synergistic antibacterial activity against Escherichia coli BL21 (DE3) harboring serine beta lactamase KPC-2 assessed as meropenem MIC at 64 microg/ml measured after 16 hrs by CLSI protocol based broth microdilution method (reference value: 16 microg/ml); type: functional; settings: dose 64 µg/ml
Escherichia coli [14] = assay: Synergistic antibacterial activity against Escherichia coli BL21 (DE3) harboring serine beta lactamase OXA-48 assessed as meropenem MIC at 64 microg/ml measured after 16 hrs by CLSI protocol based broth microdilution method (reference value: 1 microg/ml); type: functional; settings: dose 64 µg/ml
Escherichia coli [15] = assay: Synergistic antibacterial activity against Escherichia coli BL21 (DE3) harboring NDM-1 assessed as fold decrease in meropenem MIC at 64 microg/ml measured after 16 hrs by CLSI protocol based broth microdilution method; type: functional; settings: dose 64 µg/ml
Escherichia coli [16] = assay: Synergistic antibacterial activity against Escherichia coli BL21 (DE3) harboring metallo-beta lactamase IMP-1 assessed as fold decrease in meropenem MIC at 64 microg/ml measured after 16 hrs by CLSI protocol based broth microdilution method; type: functional; settings: dose 64 µg/ml
Escherichia coli [17] = assay: Synergistic antibacterial activity against Escherichia coli BL21 (DE3) harboring serine beta lactamase KPC-2 assessed as fold decrease in meropenem MIC at 64 microg/ml measured after 16 hrs by CLSI protocol based broth microdilution method; type: functional; settings: dose 64 µg/ml
Escherichia coli [18] = assay: Synergistic antibacterial activity against Escherichia coli BL21 (DE3) harboring serine beta lactamase OXA-48 assessed as fold decrease in meropenem MIC at 64 microg/ml measured after 16 hrs by CLSI protocol based broth microdilution method; type: functional; settings: dose 64 µg/ml

Metallo-beta-lactamase type 2, sequence (C7C422 whole entry): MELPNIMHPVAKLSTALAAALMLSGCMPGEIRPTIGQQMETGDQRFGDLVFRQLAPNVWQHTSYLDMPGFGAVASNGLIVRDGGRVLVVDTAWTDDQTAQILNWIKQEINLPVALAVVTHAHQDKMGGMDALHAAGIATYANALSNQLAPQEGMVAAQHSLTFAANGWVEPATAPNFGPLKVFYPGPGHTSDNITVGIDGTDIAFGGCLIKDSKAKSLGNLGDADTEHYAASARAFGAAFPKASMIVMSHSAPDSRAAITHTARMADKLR
Metallo-beta-lactamase type 2 (Bacteria), sequence (C7C422 whole entry): as above

SMILES | inhibition [1] | inhibition (Bacteria [2]) | inhibition (Bacteria [3]) | inhibition (Bacteria [4]) | inhibition (Bacteria [5]) | inhibition (Bacteria [6]) | IC50 [7] | IC50 [8] | IC50 [9] | IC50 [10] | MIC (Escherichia coli [11]) | MIC (Escherichia coli [12]) | MIC (Escherichia coli [13]) | MIC (Escherichia coli [14]) | fold change (FC) (Escherichia coli [15]) | fold change (FC) (Escherichia coli [16]) | fold change (FC) (Escherichia coli [17]) | fold change (FC) (Escherichia coli [18])
CC(C)COC(=O)ONC(=O)CCCc1ccccc1 | > 90% | > 90% | < 42% | < 42% | > 90% | > 90% | 1.87 µM | 0.85 µM | 1.03 µM | 1.47 µM | 64 µg/mL | 32 µg/mL | 8 µg/mL | 0.5 µg/mL | 2 | 2 | 2 | 2
CCCCCOC(=O)ONC(=O)C(CC)c1ccccc1 (centres undefined) | – | – | – | – | – | – | 35.3 µM | 23 µM | 22.3 µM | 17.5 µM | 128 µg/mL | 32 µg/mL | 8 µg/mL | 1 µg/mL | 2 | 2 | 2 | –
O=C(CCC1CCCCC1)NOC(=O)OCc1ccccc1 | – | – | – | – | > 90% | > 90% | 1.27 µM | 6.48 µM | 1.99 µM | 0.6 µM | 64 µg/mL | 32 µg/mL | 16 µg/mL | 0.5 µg/mL | 2 | 2 | – | 2
CCCCCOC(=O)ONC(=O)CCc1ccccc1 | > 90% | > 90% | < 42% | < 42% | – | – | 4.72 µM | 1.73 µM | 9.08 µM | 4.51 µM | 64 µg/mL | 16 µg/mL | 8 µg/mL | 1 µg/mL | 2 | 2 | 2 | –
CCOC(=O)ONC(=O)CC(c1ccccc1)c1ccccc1 | > 90% | > 90% | < 42% | < 42% | – | – | 2.24 µM | 1.64 µM | 10 µM | 13.1 µM | 128 µg/mL | 64 µg/mL | 8 µg/mL | 1 µg/mL | – | – | 2 | –
O=C(OCc1ccccc1)ONC(=O)c1ccccc1 | > 90% | > 90% | < 42% | < 42% | – | – | 2.62 µM | 2.38 µM | > 50 µM | > 50 µM | 128 µg/mL | 64 µg/mL | 16 µg/mL | 1 µg/mL | – | – | – | –
CCCCCOC(=O)ONC(=O)CCCc1ccccc1 | > 90% | > 90% | < 42% | < 42% | > 90% | > 90% | 1.87 µM | 0.85 µM | 1.03 µM | 1.47 µM | 64 µg/mL | 16 µg/mL | 8 µg/mL | 0.5 µg/mL | 2 | 2 | 2 | 2
CC(=O)NOC(=O)OCc1ccccc1 | > 90% | > 90% | < 42% | < 42% | – | – | 3.21 µM | 2.42 µM | > 50 µM | > 50 µM | 64 µg/mL | 32 µg/mL | 16 µg/mL | 1 µg/mL | 2 | 2 | – | –
CCOC(=O)ONC(=O)C(CC)c1ccccc1 (centres undefined) | – | – | – | – | – | – | 37.4 µM | 32.2 µM | 32.7 µM | 28 µM | 128 µg/mL | 32 µg/mL | 16 µg/mL | 1 µg/mL | 2 | 2 | – | –
O=C(CC(c1ccccc1)c1ccccc1)NOC(=O)OCc1ccccc1 | > 90% | > 90% | < 42% | < 42% | – | – | 0.84 µM | 0.65 µM | 5.45 µM | 1.96 µM | 64 µg/mL | 64 µg/mL | 8 µg/mL | 0.5 µg/mL | – | – | 2 | 2
CCOC(=O)ONC(=O)CCC1CCCCC1 | – | – | – | – | > 90% | > 90% | 3.27 µM | 3.03 µM | 3.45 µM | 1.29 µM | 64 µg/mL | 32 µg/mL | 16 µg/mL | 0.063 µg/mL | 2 | 2 | – | 16
CC(C)COC(=O)ONC(=O)CCc1ccccc1 | – | – | – | – | > 90% | > 90% | 6.01 µM | 12.4 µM | 2.74 µM | 4.56 µM | 128 µg/mL | 32 µg/mL | 8 µg/mL | 1 µg/mL | 2 | 2 | 2 | –
CCOC(=O)ONC(=O)CCCc1ccccc1 | > 90% | > 90% | < 42% | < 42% | > 90% | > 90% | 0.99 µM | 2.89 µM | 2.88 µM | 0.98 µM | 64 µg/mL | 16 µg/mL | 4 µg/mL | 0.5 µg/mL | 2 | 2 | 2 | 2
O=C(CCc1ccccc1)NOC(=O)OCc1ccccc1 | > 90% | > 90% | < 42% | < 42% | > 90% | > 90% | 2.18 µM | 1.69 µM | 3.09 µM | 2.66 µM | 64 µg/mL | 32 µg/mL | 8 µg/mL | 1 µg/mL | 2 | 2 | 2 | –
CCOC(=O)ONC(=O)CCc1ccccc1 | – | – | – | – | – | – | 5.03 µM | 1.83 µM | 8.5 µM | 7.7 µM | 128 µg/mL | 32 µg/mL | 8 µg/mL | 0.5 µg/mL | 2 | 2 | 2 | 2
O=C(OCc1ccccc1)ONC(=O)C1CCCCC1 | – | – | – | – | – | – | 41.1 µM | 27.2 µM | 6.71 µM | 41.9 µM | 128 µg/mL | 64 µg/mL | 16 µg/mL | 1 µg/mL | – | – | – | –
